Data taken from patent US5770410A, “Chiral synthesis with modified enzymes” (Genzyme Corporation, priority 1992, dated 1998).

Columns and labels:
Type in all cases: biochemical
[1] = molecular target: T1, Bacillus stearothermophilus lactate dehydrogenase loop exchange mutant SL1 (short loop) (Geobacillus stearothermophilus, UniProt P00344, A222G/A223G/C81T, form not given); assay: Steady-state kinetics, NADH-dependent reduction of 2-oxo acids (A340); conditions: 25° C., pH 6
T1 construct: purified; +/- FBP
T1 sequence (P00344 whole entry C81T/A222G/A223G, form open): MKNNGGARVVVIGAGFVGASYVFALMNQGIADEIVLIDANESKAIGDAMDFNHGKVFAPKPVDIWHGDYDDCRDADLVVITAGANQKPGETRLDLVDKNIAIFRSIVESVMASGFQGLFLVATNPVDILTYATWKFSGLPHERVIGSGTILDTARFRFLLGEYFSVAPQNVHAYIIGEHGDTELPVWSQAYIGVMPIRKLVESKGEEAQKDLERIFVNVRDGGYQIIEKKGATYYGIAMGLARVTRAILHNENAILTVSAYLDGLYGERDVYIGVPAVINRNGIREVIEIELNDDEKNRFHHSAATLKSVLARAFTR
Description: (§1) Each pair of overlapping oligonucleotides (20 μM of each) were subjected to 30 cycles of annealing and extension (94° C. for 1 minute, cool to 45° C. for 2 minutes, 45° C. for 1 minute, heat to 72° C. in 1 minute, 72° C. for 1 minute in 50 μl containing 0.05M KCl , 10 mM Tris pH 8.3, 1.5 mM MgCl2, 0.01% gelatin), 200 μM of each dNTP and 2.5 units TAQ DNA polymerase). The double-stranded DNA product was purified and then cut with SacII and XbaI before ligating it into the plasmid pLDHrs cut with the same enzymes. The ligated products were restricted with MluI to cleave wild-type plasmid pLDHrs.
(§2) Overnight cultures (11) were centrifuged and the packed cells were resuspended in 50 mM triethanolamine, pH 6.0. The cells were sonicated and the debris was removed by centrifugation. The protein in the supernatant was precipitated by the addition of 65% ammonium sulphate. The precipitate was spun down and resuspended in 50 mM triethanolamine, pH 6.0 and dialysed against the same buffer. After dialysis, NADH and FBP were added to the protein to final concentrations of 5 mM and 10 mM before loading onto an oxamate Sepharose column which had been pre-equilibrated with 50 mM triethanoloamine, pH 6.0, 3 mM NADH and 5 mM FBP. After washing off unbound protein with column buffer mutant LDH was eluted with 50 mM triethanolamine, pH 9.0, 0.3 M NaCl. The elutant was precipitated with 65% ammonium sulphate and then resuspended in and dialysed against 50 mM triethanolamine, pH 7.5. The protein was then loaded onto a Q-Sepharose Fast Flow column and eluted with a salt gradient. LDH eluted at a concentration of 0.25M NaCl. For the double glycine mutant enzyme, the first chromatography procedure with oxamate Sepharose was replaced by chromatography on Blue Sepharose -F3GA, otherwise the procedure was essentially the same. All proteins were judged to be greater than 98% pure from the intensity of Coomassie blue staining on an SDS Phast gel (Pharmacia). The yield of protein was usually 0.2 g/l of original broth.
(§3) Steady-state measurements were made by following the reduction in absorbance at 340 nm in the NADH/NAD^+ conversion. All assays were at 25° C. in the buffer Bis-Tris, pH 6, (20 mM), containing KC1 (50 mM) and when used fructose-1,6-bisphosphate at 5 mM. Protein concentration was determined from the absorbance at 280 nm using the value of 0.91 for 1 mg/ml protein in 1 cm path and an Mr of 33,000.
(§4) The specific substrates used in the evaluations are shown in the left column of Table 4. In Table 4, "235/6GG" denotes the mutant enzyme formed by substituting GlyGly for AlaAla at the 235-236 positions of the enzyme (Wilks et al., Biochemistry 1990, 29, 8587-8591), and "WTrs" denotes a mutant derived from the wild-type strain as shown in FIG. 1 of Wilks et al., Biochemistry 1992, 31, 7802-7806.

[2] = molecular target: T2, Bacillus stearothermophilus lactate dehydrogenase loop exchange mutant SL2 (short loop) (Geobacillus stearothermophilus, UniProt P00344, A222G/A223G/C81T, form not given); assay: as above; conditions: 25° C., pH 6
T2 construct: purified; +/- FBP
T2 sequence (P00344 whole entry C81T/A222G/A223G, form open): as above
Description: as §1, §2, §3, §4

[3] = molecular target: T3, Bacillus stearothermophilus lactate dehydrogenase, wild type, SEQ ID NO: 3 (Geobacillus stearothermophilus, UniProt P00344); assay: as above; conditions: estimate, steady state kinetic measurements
T3 construct: made in house; host or cells: E. coli
T3 sequence (P00344 whole entry): as the sequence (P00344 whole entry C81T/A222G/A223G, form open) above, with T81C, G222A, G223A counted along it
Description: as §2, with “For the double glycine mutant enzyme, the first chromatography procedure with oxamate Sepharose was replaced by chromatography on Blue Sepharose -F3GA, otherwise the procedure was essentially the same. All proteins were judged to be greater than 98% pure from the intensity of Coomassie blue staining on an SDS Phast gel (Pharmacia). The yield of protein was usually 0.2 g/l of original broth.” left out
Steady-state measurements were made by following the reduction in absorbance at 340 nm in the NADH/NAD^+ conversion. […] Protein concentration was determined from the absorbance at 280 nm using the value of 0.91 for 1 mg/ml protein in 1 cm path and an Mr of 33,000. […]

[4] = molecular target: T4, Bacillus stearothermophilus lactate dehydrogenase mutant MVS/GG (MetValSer for GlnLysPro at 102-105, GlyGly for AlaAla at 235-236) (Geobacillus stearothermophilus, UniProt P00344, A222G/A223G/K87V/P88S/Q86M); assay: Steady state kinetic measurements, reduction of 4-methyl-2-oxo-3-pentenoic acid
T4 construct: made in house; host or cells: E. coli
T4 sequence (P00344 whole entry Q86M/K87V/P88S/A222G/A223G): as the sequence (P00344 whole entry C81T/A222G/A223G, form open) above, with T81C, Q86M, K87V, P88S counted along it
Description: The mutation where alanines at 235,236 are replaced by glycines has been combined with three mutations in the mobile polypeptide loop (residues 98-112), namely […] by methionine, lysine 103 by valine and proline 105 by serine (MVS/GG).
as §3
Reduction of 4-methyl-2-oxo-3-pentenoic acid using MVS/GG (the mutant enzyme formed by substituting MetValSer for GlnLysPro at the 102-105 positions and GlyGly for AlaAla at the 235-236 positions): […]

[5] = system: Bacillus stearothermophilus lactate dehydrogenase loop exchange mutant BIG LOOP (loop SEQ ID No: 10); assay: Steady-state kinetics, NADH-dependent reduction of 2-oxo acids (A340); conditions: 25° C., pH 6
Description: as §1, §2, §3, §4

CCCCC(=O)C(=O)O [KETO CAPROATE, α-ketocaproate]
Km ([1]; +FBP (5 mM)): 16 mM
Km ([1]; -FBP): 20 mM
Km ([2]; +FBP (5 mM)): 25 mM
Km ([2]; -FBP): 60 mM

CC(C)CC(=O)C(=O)O [KETOISO CAPROATE, α-ketoisocaproate]
Km ([1]; +FBP (5 mM)): 20 mM
Km ([1]; -FBP): 40 mM
Km ([2]; +FBP (5 mM)): 25 mM
Km ([2]; -FBP): 30 mM

CC(C)=CC(=O)C(=O)O [4-methyl-2-oxo-3-pentenoic acid]
turnover [3]: 0.03 S^-1
turnover [4]: 1.2 S^-1

CC(=O)C(=O)O [PYRUVATE, pyruvate]
Km ([1]; +FBP (5 mM)): 0.08 mM
Km ([2]; +FBP (5 mM)): 0.065 mM
Km ([2]; -FBP): 0.5 mM

O=C(O)C(=O)CCc1ccccc1 [2-OXO-4-PHENYL BUTANOATE, 2-oxo-4-phenyl butanoic acid]
Km ([5]; +FBP (5 mM)): 7 mM
kcat ([5]; +FBP (5 mM)): 1.0 s⁻¹
kcat /KM ([5]; +FBP (5 mM)): 143 M⁻¹ s⁻¹
Km ([5]; -FBP): 12 mM
kcat ([5]; -FBP): 0.1 s⁻¹
Km ([1]; +FBP (5 mM)): 4 mM
kcat ([1]; +FBP (5 mM)): 0.03 s⁻¹
kcat /KM ([1]; +FBP (5 mM)): 7.5 M⁻¹ s⁻¹
Km ([1]; -FBP): 4 mM
kcat ([1]; -FBP): 0.002 s⁻¹
Km ([2]; +FBP (5 mM)): 4 mM
kcat ([2]; +FBP (5 mM)): 0.2 s⁻¹
kcat /KM ([2]; +FBP (5 mM)): 50 M⁻¹ s⁻¹
Km ([2]; -FBP): 4 mM
kcat ([2]; -FBP): 0.01 s⁻¹
kcat /KM ([2]; -FBP): 2.5 M⁻¹ s⁻¹
